Values of other authors, collected in publication PMC9268102, “Design, Synthesis and Biological Evaluation of 1,3,5-Triazine Derivatives Targeting hA1 and hA3 Adenosine Receptor” (Molecules, 2022).
Where “and” joins values, the source holds several entries; their conditions need not be identical. Equal entries are not always repeated.

Assays:
[1] = molecular target: T1, hA2A AR (Homo sapiens, UniProt P29274); conditions: cited from earlier work
T1 construct: expressed in transfected cells; host or cells: Hela-A2A cell line

[2] = molecular target: T2, hA1 AR (Homo sapiens, UniProt P30542); conditions: read-out: Ki at hA1AR; cited from earlier work
T2 construct: host or cells: CHO-A1 (CHO cells expressing hA1 AR)
T2 sequence (P30542 1-326): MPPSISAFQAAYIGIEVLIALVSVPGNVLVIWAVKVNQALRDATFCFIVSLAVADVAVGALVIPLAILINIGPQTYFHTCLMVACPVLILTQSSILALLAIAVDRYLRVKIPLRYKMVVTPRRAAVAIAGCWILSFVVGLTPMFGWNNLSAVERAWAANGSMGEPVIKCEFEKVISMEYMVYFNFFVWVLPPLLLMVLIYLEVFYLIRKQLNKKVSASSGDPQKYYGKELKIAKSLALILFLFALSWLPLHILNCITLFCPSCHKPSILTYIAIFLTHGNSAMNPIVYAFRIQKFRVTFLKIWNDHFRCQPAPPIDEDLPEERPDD

[3] = molecular target: T3, hA3 AR (Homo sapiens, UniProt P0DMS8); design: expressed in transfected cells; host or cells: Hela-A3 cell line; method as in PMID 31280999, PMID 31780082, PMID 27531666; conditions: read-out: Ki at hA3AR; cited from earlier work
T3 sequence (P0DMS8 1-318): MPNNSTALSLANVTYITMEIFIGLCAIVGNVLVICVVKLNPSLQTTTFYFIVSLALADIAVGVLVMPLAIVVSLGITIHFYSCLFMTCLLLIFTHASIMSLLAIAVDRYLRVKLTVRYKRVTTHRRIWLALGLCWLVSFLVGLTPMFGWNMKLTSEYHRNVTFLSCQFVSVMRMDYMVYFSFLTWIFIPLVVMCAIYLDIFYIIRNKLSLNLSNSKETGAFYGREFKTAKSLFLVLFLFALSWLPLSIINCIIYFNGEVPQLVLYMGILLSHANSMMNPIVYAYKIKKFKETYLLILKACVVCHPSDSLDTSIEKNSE

T1 sequence (P29274 whole entry): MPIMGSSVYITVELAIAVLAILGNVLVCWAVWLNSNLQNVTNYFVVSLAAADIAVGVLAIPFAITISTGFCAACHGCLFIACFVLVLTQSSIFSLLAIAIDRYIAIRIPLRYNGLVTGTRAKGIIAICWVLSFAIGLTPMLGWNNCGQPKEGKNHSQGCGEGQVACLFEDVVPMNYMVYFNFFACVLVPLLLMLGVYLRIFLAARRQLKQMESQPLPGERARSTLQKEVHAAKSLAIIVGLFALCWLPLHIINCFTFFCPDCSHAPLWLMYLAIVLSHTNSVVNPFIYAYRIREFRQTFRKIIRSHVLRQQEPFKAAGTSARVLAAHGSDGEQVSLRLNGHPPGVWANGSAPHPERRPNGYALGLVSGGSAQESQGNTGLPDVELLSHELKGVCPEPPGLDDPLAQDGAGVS

| Compound | Selectivity hA1/hA2AAR [1] | Ki ([1]; read-out: Ki at hA2AAR) [nM] | Ki [2] [nM] | Ki [3] [nM] |
| --- | --- | --- | --- | --- |
| Nc1nc(NCCc2ccc(O)cc2)nc(Nc2nnc(-c3ccc(Cl)cc3)s2)n1 [Compound 5] | 11.66 | 44.6 | 520 | – |
| Nc1nc(NCCc2ccc(O)cc2)nc(Nc2nc(-c3ccc(F)cc3)cs2)n1 [Compound 6] | 319 and 318.9 | – | 478 | – |
| CN1CCN(c2nc(-c3cccc(O)c3)nc3[nH]cnc23)CC1 [Compound 1] | – | – | 6.8 | 6.3 |
